20 molecules from patent US20250129021A1, “SMALL MOLECULE PROTEIN SYNTHESIS MODULATORS” (Interdict Bio, Inc., priority 2023, published 2025) can be followed below.

Type in all cases: biochemical
Common to all, as to settings: HeLa S3 lysate, sfGFP/mCherry ratio, 2 hrs at 30° C.

For one assay, the system named is KRAS G12D. Put plainly: In vitro transcription-translation (IVTT) assay, KRAS G12D reporter. From the text: All reporter constructs have been cloned into the pT7CFE1-CHis plasmid (ThermoFisher #88860) using Gibson assembly procedures (NEB #E2611L). The parental pT7CFE1-CHis plasmid contains an EMCV IRES at the 5′UTR for translation initiation, a multiple-cloning site (MCS) for gene insertion, an optional C-terminal His-epitope tag, and polyA sequence in the 3′UTR to regulate mRNA stability. All reporters are designed to be inserted at the MCS to include a red fluorescent protein (mCherry), P2A self-cleaving peptide which releases the preceding mCherry protein product, and a fusion open reading frame containing a 3×FLAG epitope, a peptide sequence of interest (TEST), and green fluorescent protein (sfGFP).
Construct Plasmid Preparation: All plasmids are isolated from MACH1 cells (ThermoFisher) grown overnight in ampicillin-containing luria broth, and purified using ZymoPure Express Plasmid Midiprep Kit (Zymo Research). Constructs are sequenced verified and diluted to a working concentration of 110 ng/μL.
HeLa S3 Lysate Preparation: HeLa S3 cell pellets are acquired from Ipracell/Ipratech (Belgium) and shipped as 4 mL frozen cell pellets on dry ice for storage at −80° C. until use. The procedure for lysate preparation is as follows. Prepare 1× Lysis Buffer, cold and stored on ice:
Each preparation takes 8 cell pellets (4 ml packed volume each, approximately 1.0×10^9 cells per pellet). Thaw cell pellets from −80° C. on ice for 90 mins. Lay pellets horizontally on top of the ice and rotate every 30 mins to ensure even thawing. Once thawed, add 4 mL of cold lysis buffer to each pellet, and using a serological pipet, gently pipet up and down to break up clumps. Incubate resuspended cells in ice for an additional 30 mins (plunged into ice). During 30 min incubation, rinse and RNase-zap (Ambion) glass dounces (use loose pestle “A”), gently dry and place on ice until needed. Prepare RNase-free Eppendorf tubes for spinning and for batch storage. Add batch labels to 1.5-1.7 mL RNase-free microcentrifuge tubes (labeling scheme below). Each batch will have an extra 1.5-1.7 mL RNase-free microcentrifuge tube for 40 μL of lysate, label the top of this tube (labeling scheme below). After 30 min incubation, transfer all 8 mL of cell pellet to dounce. Cell lysis is complete after douncing 100 times. Aliquot cell lysis into 1.5-1.7 mL temporary-microcentrifuge tubes. Place tubes in centrifuge with “fins” out, and spin at 1,200×g for 5 mins. After the first spin use a 1 mL pipet to resuspend each tube and repeat spin. This acts as an additional lysis step, is more vigorous and increases lysate yield. During second spin get liquid N2 and a fresh conical tube on ice. After spin is complete, transfer supernatant (lysate) from microcentrifuge tubes into the 50 mL conical tube and keep on ice. Repeat steps 10-14 for all other cell pellets until completed. Once all cell lysate has been transferred to the 50 mL conical tube pipet to mix so the solution is homogenous. Transfer 1 mL of lysate into batch-labeled microcentrifuge tubes and flash freeze in liquid nitrogen. Be sure to pipet up and down to mix throughout transfer step. Place all tubes in the […] for long-term storage.
In vitro transcription-translation assay setup: Each assay includes a master mix containing lysate and shared components, a 96-well plate containing compound titrations for testing, a 96-well DNA plate with reporter constructs to be tested, 96-well skirted PCR plates, and 96-well flat-bottom, black, fluorescent assay plates. […]

Another assay relates to ALK. The assay is described as follows: In vitro transcription-translation (IVTT) assay, ALK reporter. The method in brief:
(§1)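 Reporter: mCherry, P2A, then 3×FLAG-target peptide-sfGFP fusion, IRES-initiated; HeLa S3 lysate IVTT; cpd dilutions 30 μM−0.1 μM half-log in 100% DMSO (dilution-plate conc); DNA added last; 2 h, 30° C; PBS quench.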

The subject of another assay is MYC. Put plainly: In vitro transcription-translation (IVTT) assay, MYC reporter. The method in brief: as §1

On to `CCN(CC)Cc1nnc(NC(=O)O[C@@H]2[C@@H](O)CN[C@@H]2Cc2ccc(OC)cc2)s1` [V187552, (2R,3S,4S)-4-hydroxy-2-[(4-methoxyphenyl)methyl]pyrrolidin-3-yl N-{5-[(diethylamino)methyl]-1,3,4-thiadiazol-2-yl}carbamate; trifluoroacetic acid], for which the IC50 in the assay with KRAS G12D, in the assay on ALK and in the assay with MYC was over 30 µM each time.
For the molecule `COc1ccc(C[C@H]2NC[C@H](O)[C@H]2OC(=O)NC[C@@H]2CCCN2)cc1` [V187684, (2R,3S,4S)-4-hydroxy-2-[(4-methoxyphenyl)methyl]pyrrolidin-3-yl N-[(2S)-pyrrolidin-2-ylmethyl]carbamate; trifluoroacetic acid], the 50% inhibitory concentration (IC50) was over 30 µM in the assay on KRAS G12D, over 30 µM in the assay on ALK and 20 to 30 µM with MYC.
On to `COc1ccc(C[C@H]2NC[C@H](O)[C@H]2OC(=O)NCCN2CC(O)C(F)(F)C2)cc1` (some centres unmarked) [V187620], for which the half-maximal inhibitory concentration (IC50) in the assay on KRAS G12D is 20 to 30 µM; in the assay on ALK it was under 10 µM; in the assay on MYC, 10 to 20 µM.
As to `COCc1nnc(NC(=O)O[C@@H]2[C@@H](O)CN[C@@H]2Cc2ccc(OC)cc2)s1` [V187730, (2R,3S,4S)-4-hydroxy-2-[(4-methoxyphenyl)methyl]pyrrolidin-3-yl N-[5-(methoxymethyl)-1,3,4-thiadiazol-2-yl]carbamate], the IC50 in the assay with KRAS G12D, in the assay on ALK and in the assay on MYC was over 30 µM in each case.
Take `COc1ccc(C[C@H]2NC[C@H](O)[C@H]2OC(=O)NCCCCN)cc1` [V187592, (2R,3S,4S)-4-hydroxy-2-[(4-methoxyphenyl)methyl]pyrrolidin-3-yl N-(4-aminobutyl)carbamate; trifluoroacetic acid]: the half-inhibitory concentration (IC50) with KRAS G12D, with ALK and with MYC was under 10 µM in each case.
Consider `CCNc1c(NCCNC(=O)O[C@@H]2[C@@H](O)CN[C@@H]2Cc2ccc(OC)cc2)c(=O)c1=O` [V187589, (2R,3S,4S)-4-hydroxy-2-[(4-methoxyphenyl)methyl]pyrrolidin-3-yl N-(2-{[2-(ethylamino)-3,4-dioxocyclobut-1-en-1-yl]amino}ethyl)carbamate; trifluoroacetic acid], for which the half-inhibitory concentration (IC50) in the assay on KRAS G12D, in the assay on ALK and in the assay on MYC was over 30 µM in each case.
On to `COc1ccc(CC2NCC(O)C2OC(=O)NC2CC(N)C2)cc1` [V187681, (2R,3S,4S)-4-hydroxy-2-[(4-methoxyphenyl)methyl]pyrrolidin-3-yl N-[(1s,3s)-3-aminocyclobutyl]carbamate], for which the 50% inhibitory concentration (IC50) in the assay on KRAS G12D, with ALK and with MYC was over 30 µM throughout.
`COc1ccc(C[C@H]2NC[C@H](O)[C@H]2OC(=O)NCCN2CCC3(CC(O)C3)C2)cc1` (stereo partly drawn) [V187642, (2R,3S,4S)-4-hydroxy-2-[(4-methoxyphenyl)methyl]pyrrolidin-3-yl N-(2-{2-hydroxy-6-azaspiro[3.4]octan-6-yl}ethyl)carbamate]: the IC50 with KRAS G12D, in the assay on ALK and in the assay with MYC was over 30 µM each time.
Take `COc1ccc(C[C@H]2NC[C@H](O)[C@H]2OC(=O)NCCNc2c(N)c(=O)c2=O)cc1` [V187518, (2R,3S,4S)-4-hydroxy-2-[(4-methoxyphenyl)methyl]pyrrolidin-3-yl N-{2-[(2-amino-3,4-dioxocyclobut-1-en-1-yl)amino]ethyl}carbamate; trifluoroacetic acid]: the IC50 in the assay on KRAS G12D was over 30 µM; with ALK, 10 to 20 µM; with MYC it was over 30 µM.
`CCN(Cc1ccccc1)Cc1nnc(NC(=O)O[C@@H]2[C@@H](O)CN[C@@H]2Cc2ccc(OC)cc2)s1` [V187597, (2R,3S,4S)-4-hydroxy-2-[(4-methoxyphenyl)methyl]pyrrolidin-3-yl N-(5-{[benzyl(ethyl)amino]methyl}-1,3,4-thiadiazol-2-yl)carbamate]: the IC50 in the assay with KRAS G12D, in the assay with ALK and in the assay with MYC was over 30 µM each time.
Turning to `CCCCN(CCCC)CCNC(=O)O[C@@H]1[C@@H](O)CN[C@@H]1Cc1ccc(OC)cc1` [V187382, (2R,3S,4S)-4-hydroxy-2-[(4-methoxyphenyl)methyl]pyrrolidin-3-yl N-[2-(dibutylamino)ethyl]carbamate], the half-maximal inhibitory concentration (IC50) in the assay on KRAS G12D, with ALK and in the assay on MYC was over 30 µM each time.
In the case of `COc1ccc(C[C@H]2NC[C@H](O)[C@H]2OC(=O)NCC[C@H]2CN(Cc3ccccc3)CCN2Cc2ccccc2)cc1` [V187315], the 50% inhibitory concentration (IC50) in the assay on KRAS G12D, in the assay on ALK and with MYC was over 30 µM in each case.
In the case of `COc1ccc(C[C@H]2NC[C@H](O)[C@H]2OC(=O)N[C@@H]2CCNC2)cc1` [V187688, (2R,3S,4S)-4-hydroxy-2-(4-methoxybenzyl)pyrrolidin-3-yl ((R)-pyrrolidin-3-yl)carbamate], the 50% inhibitory concentration (IC50) with KRAS G12D, in the assay with ALK and in the assay on MYC was over 30 µM in each case.
Regarding `COc1ccc(C[C@H]2NC[C@H](O)[C@H]2OC(=O)NCC[C@H]2CNCCN2Cc2ccccc2)cc1` [V187568, (2R,3S,4S)-4-hydroxy-2-[(4-methoxyphenyl)methyl]pyrrolidin-3-yl N-{2-[(2S)-1-benzylpiperazin-2-yl]ethyl}carbamate], the half-inhibitory concentration (IC50) is over 30 µM in the assay with KRAS G12D, 20 to 30 µM in the assay with ALK and over 30 µM with MYC.
For `COc1ccc(C[C@@H]2NC[C@@H](O)[C@H]2OC(=O)NCCN(Cc2c[nH]cn2)C(=O)C2CCC2)cc1` [V187540, (2S,3S,4R)-4-hydroxy-2-[(4-methoxyphenyl)methyl]pyrrolidin-3-yl N-{2-[1-cyclobutyl-N-(1H-imidazol-4-ylmethyl)formamido]ethyl}carbamate], the concentration for half-maximal inhibition (IC50) was over 30 µM in the assay on KRAS G12D, 10 to 20 µM with ALK and over 30 µM in the assay on MYC.
Regarding `COc1ccc(C[C@H]2NC[C@H](O)[C@H]2OC(=O)NCC2CCSCC2)cc1` [V187516, (2R,3S,4S)-4-hydroxy-2-[(4-methoxyphenyl)methyl]pyrrolidin-3-yl N-(thian-4-ylmethyl) carbamate], the figures for the IC50 in the assay on KRAS G12D, in the assay with ALK and with MYC were 10 to 20 µM, under 10 µM and under 10 µM, respectively.
On to `COc1ccc(C[C@H]2NC[C@H](O)[C@H]2OC(=O)NCCN2CC3(CNC3)C2)cc1` [V187623, (2R,3S,4S)-4-hydroxy-2-[(4-methoxyphenyl)methyl]pyrrolidin-3-yl N-(2-{2,6-diazaspiro [3.3]heptan-2-yl}ethyl)carbamate], for which the half-inhibitory concentration (IC50) with KRAS G12D was over 30 µM; in the assay with ALK, 20 to 30 µM; in the assay on MYC, over 30 µM.
For `COCCN(CCNC(=O)O[C@@H]1[C@H](O)CN[C@H]1Cc1ccc(OC)cc1)CCc1ccccc1` [V187508, (2S,3S,4R)-4-hydroxy-2-[(4-methoxyphenyl)methyl]pyrrolidin-3-yl N-{2-[(2-methoxyethyl)(2-phenylethyl)amino]ethyl}carbamate], the IC50 in the assay with KRAS G12D was over 30 µM; in the assay with ALK it was 10 to 20 µM; in the assay with MYC, over 30 µM.
For `COc1ccc(C[C@H]2NC[C@H](O)[C@H]2OC(=O)NCCN2CCCC2)cc1` [V187565, (2R,3S,4S)-4-hydroxy-2-[(4-methoxyphenyl)methyl]pyrrolidin-3-yl N-[2-(pyrrolidin-1-yl)ethyl]carbamate; trifluoroacetic acid], the IC50 was over 30 µM in the assay with KRAS G12D, under 10 µM in the assay with ALK and over 30 µM in the assay with MYC.
Consider `COc1ccc(C[C@H]2NC[C@H](O)[C@H]2OC(=O)NCCOCCN(C)C)cc1` [V187383, (2R,3S,4S)-4-hydroxy-2-[(4-methoxyphenyl)methyl]pyrrolidin-3-yl N-{2-[2-(dimethylamino)ethoxy]ethyl}carbamate], for which the values for the half-maximal inhibitory concentration (IC50) in the assay with KRAS G12D and with ALK were over 30 µM and under 10 µM, respectively.
